Results taken from publication PMC3766860, “Two Novel Tyrosinase Inhibitory Sesquiterpenes Induced by CuCl2 from a Marine-Derived Fungus Pestalotiopsis sp. Z233” (Marine Drugs, 2013).

Target: Mushroom tyrosinase
Assay: o-diphenolase assay of mushroom tyrosinase, L-DOPA substrate, DOPAchrome absorbance at […] nm
Assay type: biochemical

| SMILES | IC50 [µM] |
| --- | --- |
| CC(=O)O[C@@]12C[C@@H](C(C)(C)O)C[C@@H](OC(=O)c3ccccc3)[C@@]1(CO)[C@H](O)[C@H](O)C[C@@]2(C)OC(C)=O (relative stereo) [compound 2, 4α,5α-diacetoxy-9α-benzoyloxy-7βH-eudesman-1β,2β,11,14-tetraol] | 22.3 |
| CC(=O)OC[C@]12[C@H](OC(C)=O)[C@H](O)C[C@H](C)[C@]1(OC(C)=O)[C@@H](OC(C)=O)[C@@H](C(C)(C)O)C[C@H]2OC(=O)c1ccccc1 (relative stereo) [compound 1, 1β,5α,6α,14-tetraacetoxy-9α-benzoyloxy-7βH-eudesman-2β,11-diol] | 14.8 |
